# Tests used:
# bedstraw = test: Test B pre/postemergence bedstraw; type: in vivo, Galium aparine; conditions: for Bedstraw plant response rating: Rate 500 g/ha, scale of 0 to 10 where 0 is no effect and 10 is complete control
# Procedure, shortened: (§1)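 Herbicidal effect was estimated by eye on a ten-point control scale after plants spent twelve to sixteen days in a greenhouse following soil or foliar treatment. Foliar sprays targeted plants at one to four leaves; all doses were formulated in a non-phytotoxic solvent with surfactant.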
# blackgrass = test: Test B pre/postemergence blackgrass; type: in vivo, Alopecurus myosuroides; conditions: for Blackgrass plant response rating: scale of 0 to 10 where 0 is no effect and 10 is complete control
# Procedure, shortened: as §1
# surinam grass = test: Test B pre/postemergence surinam grass; type: in vivo, Brachiaria decumbens; conditions: for B. signalgrass plant response rating: scale of 0 to 10 where 0 is no effect and 10 is complete control
# Procedure, shortened: as §1
# cocklebur = test: Test B pre/postemergence cocklebur; type: in vivo, Xanthium strumarium; conditions: for Cocklebur plant response rating: scale of 0 to 10 where 0 is no effect and 10 is complete control
# Procedure, shortened: as §1
# corn = test: Test B pre/postemergence corn; type: in vivo, Zea mays; conditions: for Corn plant response rating: scale of 0 to 10 where 0 is no effect and 10 is complete control
# Procedure, shortened: as §1
# crabgrass = test: Test B pre/postemergence crabgrass; type: in vivo, Digitaria sanguinalis; conditions: for Crabgrass plant response rating: scale of 0 to 10 where 0 is no effect and 10 is complete control
# Procedure, shortened: as §1
# giant foxtail = test: Test B pre/postemergence giant foxtail; type: in vivo, Setaria faberii; conditions: for Giant foxtail plant response rating: scale of 0 to 10 where 0 is no effect and 10 is complete control
# Procedure, shortened: as §1
# morningglory = test: Test B pre/postemergence morningglory; type: in vivo, Ipomoea hederacea; conditions: for Morningglory plant response rating: scale of 0 to 10 where 0 is no effect and 10 is complete control
# Procedure, shortened: as §1
# pigweed = test: Test B pre/postemergence pigweed; type: in vivo, Amaranthus retroflexus; conditions: for Redroot pigweed plant response rating: scale of 0 to 10 where 0 is no effect and 10 is complete control
# Procedure, shortened: as §1
# rape = test: Test B pre/postemergence rape; type: in vivo, Brassica napus; conditions: for Rape plant response rating: scale of 0 to 10 where 0 is no effect and 10 is complete control
# Procedure, shortened: as §1
# soybean = test: Test B pre/postemergence soybean; type: in vivo, Glycine max; conditions: for Soybean plant response rating: scale of 0 to 10 where 0 is no effect and 10 is complete control
# Procedure, shortened: as §1
# sugar beet = test: Test B pre/postemergence sugar beet; type: in vivo, Beta vulgaris; conditions: for Sugarbeets plant response rating: scale of 0 to 10 where 0 is no effect and 10 is complete control
# Procedure, shortened: as §1
# velvetleaf = test: Test B pre/postemergence velvetleaf; type: in vivo, Abutilon theophrasti; conditions: for Velvetleaf plant response rating: scale of 0 to 10 where 0 is no effect and 10 is complete control
# Procedure, shortened: as §1
# wheat = test: Test B pre/postemergence wheat; type: in vivo, Triticum aestivum; conditions: for Wheat plant response rating: scale of 0 to 10 where 0 is no effect and 10 is complete control
# Procedure, shortened: as §1
# wild oat = test: Test B pre/postemergence wild oat; type: in vivo, Avena fatua; conditions: for Wild oats plant response rating: scale of 0 to 10 where 0 is no effect and 10 is complete control
# Procedure, shortened: as §1
# purple nutsedge = test: Test B pre/postemergence purple nutsedge; type: in vivo, Cyperus rotundus; conditions: for Nutsedge plant response rating: scale of 0 to 10 where 0 is no effect and 10 is complete control
# Procedure, shortened: as §1
# smallflower flatsedge = test: Test B flood test smallflower flatsedge; type: in vivo, Cyperus difformis
# Procedure, shortened: (§2)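 Read-out is a visual response score from 0 (no effect) to 10 (complete control), assigned by comparison with untreated controls. Treatment was applied at the 2-leaf stage, and plants stayed in the greenhouse for twelve to sixteen days before scoring.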
# duck salad = test: Test B flood test duck salad; type: in vivo, Heteranthera limosa
# Procedure, shortened: as §2
# bamyardgrass = test: Test B flood test barnyardgrass; type: in vivo, Echinochloa crus-galli
# Procedure, shortened: as §2
# [1] = Postemergence, Rate 250 g/ha, scale 0 to 10, 0 is no effect, 10 is complete control
# [2] = Postemergence, Rate 125 g/ha, scale 0 to 10, 0 is no effect, 10 is complete control
# [3] = Preemergence, Rate 62 g/ha, scale 0 to 10 (0 no effect, 10 complete control)
# [4] = Rate 62 g/ha, flood test species, Pre-emergence, visual evaluation after twelve to sixteen days
# [5] = Rate 125 g/ha, under heading Pre-emergence, flood test species, visual evaluation after twelve to sixteen days
# [6] = Rate 250 g/ha, Pre-emergence, flood-test species, scale 0 to 10, 0 is no effect, 10 is complete control
# [7] = Rate 500 g/ha, Pre-emergence, flood test species, scale 0 to 10 (0 no effect, 10 complete control)
smiles,measurement,setting,value
CCCCCCn1c(=O)on(C(=O)N(c2ccc(F)cc2)C(C)C)c1=O [Compound 389],"Plant response rating, Bedstraw",bedstraw; [1],5
same,Bedstraw plant response rating,bedstraw; Postemergence,7
same,Bedstraw plant response rating,bedstraw; Preemergence,10
same,"Plant response rating, Blackgrass",blackgrass; [2],0
same,"Plant response rating, Blackgrass",blackgrass; [1],6
same,Blackgrass plant response rating,"blackgrass; Postemergence, Rate 500 g/ha",6
same,"Plant response rating, Blackgrass",blackgrass; [3],0
same,Blackgrass plant response rating (0 to 10 scale),"blackgrass; Preemergence, Rate 125 g/ha",2
same,Blackgrass plant response rating,"blackgrass; Preemergence, Rate 250 g/ha",6
same,Blackgrass plant response rating,"blackgrass; Preemergence, Rate 500 g/ha",9
same,Blackgrass plant response rating,"blackgrass; Rate 62 g/ha, Postemergence",0
same,"Plant response rating, B. signalgrass",surinam grass; [2],0
same,"Plant response rating, B. signalgrass",surinam grass; [1],0
same,B. signalgrass plant response rating,"surinam grass; Postemergence, Rate 500 g/ha",0
same,"Plant response rating, B. signalgrass",surinam grass; [3],0
same,"B. signalgrass plant response rating (0 to 10 scale, 0 is no effect, 10 is complete control)","surinam grass; Preemergence, Rate 125 g/ha",0
same,B. signalgrass plant response rating,"surinam grass; Preemergence, Rate 250 g/ha",0
same,B. signalgrass plant response rating,"surinam grass; Preemergence, Rate 500 g/ha",4
same,B. signalgrass plant response rating,"surinam grass; Rate 62 g/ha, Postemergence",0
same,"Plant response rating, Cocklebur",cocklebur; [2],0
same,"Plant response rating, Cocklebur",cocklebur; [1],0
same,Cocklebur plant response rating,"cocklebur; Postemergence, Rate 500 g/ha",0
same,"Plant response rating, Cocklebur",cocklebur; [3],0
same,Cocklebur plant response rating (0 to 10 scale),"cocklebur; Preemergence, Rate 125 g/ha",0
same,Cocklebur plant response rating,"cocklebur; Preemergence, Rate 250 g/ha",0
same,Cocklebur plant response rating,"cocklebur; Preemergence, Rate 500 g/ha",0
same,Cocklebur plant response rating,"cocklebur; Rate 62 g/ha, Postemergence",0
same,"Plant response rating, Corn",corn; [2],0
same,"Plant response rating, Corn",corn; [1],0
same,Corn plant response rating,"corn; Postemergence, Rate 500 g/ha",0
same,"Plant response rating, Corn",corn; [3],0
same,Corn plant response rating (0 to 10 scale),"corn; Preemergence, Rate 125 g/ha",0
same,Corn plant response rating,"corn; Preemergence, Rate 250 g/ha",0
same,Corn plant response rating,"corn; Preemergence, Rate 500 g/ha",4
same,Corn plant response rating,"corn; Rate 62 g/ha, Postemergence",0
same,"Plant response rating, Crabgrass",crabgrass; [2],3
same,"Plant response rating, Crabgrass",crabgrass; [1],4
same,Crabgrass plant response rating,"crabgrass; Postemergence, Rate 500 g/ha",7
same,"Plant response rating, Crabgrass",crabgrass; [3],1
same,Crabgrass plant response rating (0 to 10 scale),"crabgrass; Preemergence, Rate 125 g/ha",2
same,Crabgrass plant response rating,"crabgrass; Preemergence, Rate 250 g/ha",9
same,Crabgrass plant response rating,"crabgrass; Preemergence, Rate 500 g/ha",10
same,Crabgrass plant response rating,"crabgrass; Rate 62 g/ha, Postemergence",0
same,"Plant response rating, Giant foxtail",giant foxtail; [2],2
same,"Plant response rating, Giant foxtail",giant foxtail; [1],7
same,Giant foxtail plant response rating,"giant foxtail; Postemergence, Rate 500 g/ha",8
same,"Plant response rating, Giant foxtail",giant foxtail; [3],2
same,Giant foxtail plant response rating (0 to 10 scale),"giant foxtail; Preemergence, Rate 125 g/ha",8
same,Giant foxtail plant response rating,"giant foxtail; Preemergence, Rate 250 g/ha",10
same,Giant foxtail plant response rating,"giant foxtail; Preemergence, Rate 500 g/ha",10
same,Giant foxtail plant response rating,"giant foxtail; Rate 62 g/ha, Postemergence",0
same,"Plant response rating, Morningglory",morningglory; [1],8
same,Morningglory plant response rating,"morningglory; Postemergence, Rate 500 g/ha",10
same,"Plant response rating, Morningglory",morningglory; [3],0
same,Morningglory plant response rating (0 to 10 scale),"morningglory; Preemergence, Rate 125 g/ha",0
same,Morningglory plant response rating,"morningglory; Preemergence, Rate 250 g/ha",0
same,Morningglory plant response rating,"morningglory; Preemergence, Rate 500 g/ha",1
same,Morningglory plant response rating,"morningglory; Rate 62 g/ha, Postemergence",2
same,"Plant response rating, Redroot pigweed",pigweed; [1],0
same,Redroot pigweed plant response rating,"pigweed; Postemergence, Rate 500 g/ha",7
same,"Plant response rating, Redroot pigweed",pigweed; [3],0
same,Redroot pigweed plant response rating (0 to 10 scale),"pigweed; Preemergence, Rate 125 g/ha",0
same,Redroot pigweed plant response rating,"pigweed; Preemergence, Rate 250 g/ha",4
same,Redroot pigweed plant response rating,"pigweed; Preemergence, Rate 500 g/ha",10
same,Redroot pigweed plant response rating,"pigweed; Rate 62 g/ha, Postemergence",0
same,"Plant response rating, Rape",rape; [1],2
same,Rape plant response rating,"rape; Postemergence, Rate 500 g/ha",4
same,"Plant response rating, Rape",rape; [3],0
same,Rape plant response rating (0 to 10 scale),"rape; Preemergence, Rate 125 g/ha",0
same,Rape plant response rating,"rape; Preemergence, Rate 250 g/ha",0
same,Rape plant response rating,"rape; Preemergence, Rate 500 g/ha",8
same,"Plant response rating, Soybean",soybean; [1],2
same,Soybean plant response rating,"soybean; Postemergence, Rate 500 g/ha",3
same,"Plant response rating, Soybean",soybean; [3],0
same,Soybean plant response rating (0 to 10 scale),"soybean; Preemergence, Rate 125 g/ha",0
same,Soybean plant response rating,"soybean; Preemergence, Rate 250 g/ha",0
same,Soybean plant response rating,"soybean; Preemergence, Rate 500 g/ha",3
same,Soybean plant response rating,"soybean; Rate 62 g/ha, Postemergence",2
same,"Plant response rating, Sugarbeets",sugar beet; [1],0
same,Sugarbeets plant response rating,"sugar beet; Postemergence, Rate 500 g/ha",0
same,"Plant response rating, Sugarbeets",sugar beet; [3],0
same,Sugarbeets plant response rating (0 to 10 scale),"sugar beet; Preemergence, Rate 125 g/ha",0
same,Sugarbeets plant response rating,"sugar beet; Preemergence, Rate 250 g/ha",0
same,Sugarbeets plant response rating,"sugar beet; Preemergence, Rate 500 g/ha",4
same,Sugarbeets plant response rating,"sugar beet; Rate 62 g/ha, Postemergence",0
same,"Plant response rating, Velvetleaf",velvetleaf; [1],0
same,Velvetleaf plant response rating,"velvetleaf; Postemergence, Rate 500 g/ha",0
same,"Plant response rating, Velvetleaf",velvetleaf; [3],0
same,Velvetleaf plant response rating (0 to 10 scale),"velvetleaf; Preemergence, Rate 125 g/ha",0
same,Velvetleaf plant response rating,"velvetleaf; Preemergence, Rate 250 g/ha",0
same,Velvetleaf plant response rating,"velvetleaf; Preemergence, Rate 500 g/ha",2
same,Velvetleaf plant response rating,"velvetleaf; Rate 62 g/ha, Postemergence",0
same,"Plant response rating, Wheat",wheat; [1],0
same,Wheat plant response rating,"wheat; Postemergence, Rate 500 g/ha",0
same,"Plant response rating, Wheat",wheat; [3],0
same,Wheat plant response rating (0 to 10 scale),"wheat; Preemergence, Rate 125 g/ha",0
same,Wheat plant response rating,"wheat; Preemergence, Rate 250 g/ha",0
same,Wheat plant response rating,"wheat; Preemergence, Rate 500 g/ha",0
same,Wheat plant response rating,"wheat; Rate 62 g/ha, Postemergence",0
same,"Plant response rating, Wild oats",wild oat; [1],0
same,Wild oats plant response rating,"wild oat; Postemergence, Rate 500 g/ha",0
same,"Plant response rating, Wild oats",wild oat; [3],0
same,Wild oats plant response rating (0 to 10 scale),"wild oat; Preemergence, Rate 125 g/ha",0
same,Wild oats plant response rating,"wild oat; Preemergence, Rate 250 g/ha",1
same,Wild oats plant response rating,"wild oat; Preemergence, Rate 500 g/ha",4
same,Wild oats plant response rating,"wild oat; Rate 62 g/ha, Postemergence",0
same,"Plant response rating, Nutsedge",purple nutsedge; [1],0
same,Nutsedge plant response rating,"purple nutsedge; Postemergence, Rate 500 g/ha",0
same,"Plant response rating, Nutsedge",purple nutsedge; [3],0
same,Nutsedge plant response rating (0 to 10 scale),"purple nutsedge; Preemergence, Rate 125 g/ha",0
same,Nutsedge plant response rating,"purple nutsedge; Preemergence, Rate 250 g/ha",0
same,Nutsedge plant response rating,"purple nutsedge; Preemergence, Rate 500 g/ha",0
same,Nutsedge plant response rating,"purple nutsedge; Rate 62 g/ha, Postemergence",0
same,"Plant response rating, S. Flatsedge (0 to 10 scale, 0 is no effect, 10 is complete control)",smallflower flatsedge; [4],0
same,"S. Flatsedge plant response rating (0 to 10 scale, 0 is no effect, 10 is complete control)",smallflower flatsedge; [5],0
same,S. Flatsedge plant response rating,smallflower flatsedge; [6],0
same,S. Flatsedge plant response rating,smallflower flatsedge; [7],0
same,"Plant response rating, Ducksalad (0 to 10 scale, 0 is no effect, 10 is complete control)",duck salad; [4],0
same,"Ducksalad plant response rating (0 to 10 scale, 0 is no effect, 10 is complete control)",duck salad; [5],0
same,Ducksalad plant response rating,duck salad; [6],0
same,Ducksalad plant response rating,duck salad; [7],3
same,"Plant response rating, Barnyardgrass (0 to 10 scale, 0 is no effect, 10 is complete control)",bamyardgrass; [4],0
same,"Barnyardgrass plant response rating (0 to 10 scale, 0 is no effect, 10 is complete control)",bamyardgrass; [5],0
same,Barnyardgrass plant response rating,bamyardgrass; [6],0
same,Barnyardgrass plant response rating,bamyardgrass; [7],0

# Source: patent publication US6737383B1, “Herbicidal oxadiazolidines” (priority 1999, dated 2004)
